Reference: ChEMBL document CHEMBL4507295 (2021)

Tests used:
[1] = molecular target: AP2-associated protein kinase 1 (Homo sapiens) (UniProt Q2M2I8); settings: Compound concentration 1000.0 nM
[2] = test system: Tyrosine-protein kinase ABL1 (Homo sapiens), P00519 [F317I]; settings: Compound concentration 1000.0 nM
[3] = molecular target: RAC-alpha serine/threonine-protein kinase (Homo sapiens) (UniProt P31749); settings: Compound concentration 1000.0 nM
[4] = molecular target: ALK tyrosine kinase receptor (Homo sapiens) (UniProt Q9UM73); settings: Compound concentration 1000.0 nM
[5] = molecular target: Cyclin-dependent kinase 11A (Homo sapiens) (UniProt Q9UQ88); settings: Compound concentration 1000.0 nM
[6] = molecular target: Citron Rho-interacting kinase (Homo sapiens) (UniProt O14578); settings: Compound concentration 1000.0 nM
[7] = molecular target: Serine/threonine-protein kinase DCLK2 (Homo sapiens) (UniProt Q8N568); settings: Compound concentration 1000.0 nM
[8] = molecular target: Serine/threonine-protein kinase 17B (Homo sapiens) (UniProt O94768); settings: Compound concentration 1000.0 nM
[9] = molecular target: Ephrin type-B receptor 3 (Homo sapiens) (UniProt P54753); settings: Compound concentration 1000.0 nM
[10] = molecular target: Beta-adrenergic receptor kinase 1 (Homo sapiens) (UniProt P25098); settings: Compound concentration 1000.0 nM
[11] = molecular target: Glycogen synthase kinase-3 alpha (Homo sapiens) (UniProt P49840); settings: Compound concentration 1000.0 nM
[12] = molecular target: Homeodomain-interacting protein kinase 2 (Homo sapiens) (UniProt Q9H2X6); settings: Compound concentration 1000.0 nM
[13] = molecular target: Inhibitor of nuclear factor kappa-B kinase subunit alpha (Homo sapiens) (UniProt O15111); settings: Compound concentration 1000.0 nM
[14] = molecular target: Inhibitor of nuclear factor kappa-B kinase subunit beta (Homo sapiens) (UniProt O14920); settings: Compound concentration 1000.0 nM
[15] = molecular target: Interleukin-1 receptor-associated kinase 3 (Homo sapiens) (UniProt Q9Y616); settings: Compound concentration 1000.0 nM
[16] = molecular target: Tyrosine-protein kinase JAK1 (Homo sapiens) (UniProt P23458); settings: Compound concentration 1000.0 nM
[17] = test system: Mast/stem cell growth factor receptor Kit (Homo sapiens), P10721 [D816V]; settings: Compound concentration 1000.0 nM
[18] = molecular target: LIM domain kinase 1 (Homo sapiens) (UniProt P53667); settings: Compound concentration 1000.0 nM
[19] = test system: Leucine-rich repeat serine/threonine-protein kinase 2 (Homo sapiens), Q5S007 [G2019S]; settings: Compound concentration 1000.0 nM
[20] = molecular target: Maternal embryonic leucine zipper kinase (Homo sapiens) (UniProt Q14680); settings: Compound concentration 1000.0 nM
[21] = test system: Hepatocyte growth factor receptor (Homo sapiens), P08581 [Y1235D]; settings: Compound concentration 1000.0 nM
[22] = molecular target: MAP kinase-interacting serine/threonine-protein kinase 2 (Homo sapiens) (UniProt Q9HBH9); settings: Compound concentration 1000.0 nM
[23] = molecular target: Myosin-IIIb (Homo sapiens) (UniProt Q8WXR4); settings: Compound concentration 1000.0 nM
[24] = molecular target: Serine/threonine-protein kinase PAK 2 (Homo sapiens) (UniProt Q13177); settings: Compound concentration 1000.0 nM
[25] = molecular target: cAMP-dependent protein kinase catalytic subunit alpha (Homo sapiens) (UniProt P17612); settings: Compound concentration 1000.0 nM
[26] = molecular target: Protein kinase C delta type (Homo sapiens) (UniProt Q05655); settings: Compound concentration 1000.0 nM
[27] = molecular target: cAMP-dependent protein kinase catalytic subunit PRKX (Homo sapiens) (UniProt P51817); settings: Compound concentration 1000.0 nM
[28] = molecular target: Ribosomal protein S6 kinase alpha-6 (Homo sapiens) (UniProt Q9UK32); settings: Compound concentration 1000.0 nM
[29] = molecular target: Serine/threonine-protein kinase SIK1 (Homo sapiens) (UniProt P57059); settings: Compound concentration 1000.0 nM
[30] = molecular target: Activated CDC42 kinase 1 (Homo sapiens) (UniProt Q07912); settings: Compound concentration 1000.0 nM
[31] = molecular target: BDNF/NT-3 growth factors receptor (Homo sapiens) (UniProt Q16620); settings: Compound concentration 1000.0 nM
[32] = molecular target: T1, D(4) dopamine receptor (Homo sapiens) (UniProt P21917); settings: Compound concentration 10.0 uM
T1 sequence (whole entry): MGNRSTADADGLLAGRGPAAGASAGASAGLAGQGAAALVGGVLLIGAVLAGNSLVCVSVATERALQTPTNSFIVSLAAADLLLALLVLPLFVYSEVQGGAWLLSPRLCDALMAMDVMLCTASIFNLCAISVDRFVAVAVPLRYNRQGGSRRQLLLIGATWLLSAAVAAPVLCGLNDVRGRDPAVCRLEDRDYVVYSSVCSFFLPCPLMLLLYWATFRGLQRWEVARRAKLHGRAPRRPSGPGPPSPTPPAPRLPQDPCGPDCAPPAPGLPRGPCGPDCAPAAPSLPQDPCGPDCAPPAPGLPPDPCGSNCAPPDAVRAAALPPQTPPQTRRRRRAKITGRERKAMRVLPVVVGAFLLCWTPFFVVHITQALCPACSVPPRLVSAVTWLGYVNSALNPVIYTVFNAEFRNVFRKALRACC

[33] = molecular target: T2, Muscarinic acetylcholine receptor M4 (Homo sapiens) (UniProt P08173); settings: Compound concentration 10.0 uM
T2 sequence (whole entry): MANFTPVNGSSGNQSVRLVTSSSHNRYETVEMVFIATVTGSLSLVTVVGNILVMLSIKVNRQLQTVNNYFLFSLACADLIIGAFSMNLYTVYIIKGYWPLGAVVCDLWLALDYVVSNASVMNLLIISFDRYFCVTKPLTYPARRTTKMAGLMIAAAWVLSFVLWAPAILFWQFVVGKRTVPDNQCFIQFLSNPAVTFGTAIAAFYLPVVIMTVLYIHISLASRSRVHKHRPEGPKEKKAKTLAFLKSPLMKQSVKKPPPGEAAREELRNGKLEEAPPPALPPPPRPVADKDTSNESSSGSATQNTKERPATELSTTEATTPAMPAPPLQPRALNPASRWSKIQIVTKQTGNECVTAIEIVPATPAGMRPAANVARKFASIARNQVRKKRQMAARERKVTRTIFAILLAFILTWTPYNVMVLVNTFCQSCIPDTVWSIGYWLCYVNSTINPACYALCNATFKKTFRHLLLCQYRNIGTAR

BDNF/NT-3 growth factors receptor (Homo sapiens), sequence (Q16620 32-822 limits assumed): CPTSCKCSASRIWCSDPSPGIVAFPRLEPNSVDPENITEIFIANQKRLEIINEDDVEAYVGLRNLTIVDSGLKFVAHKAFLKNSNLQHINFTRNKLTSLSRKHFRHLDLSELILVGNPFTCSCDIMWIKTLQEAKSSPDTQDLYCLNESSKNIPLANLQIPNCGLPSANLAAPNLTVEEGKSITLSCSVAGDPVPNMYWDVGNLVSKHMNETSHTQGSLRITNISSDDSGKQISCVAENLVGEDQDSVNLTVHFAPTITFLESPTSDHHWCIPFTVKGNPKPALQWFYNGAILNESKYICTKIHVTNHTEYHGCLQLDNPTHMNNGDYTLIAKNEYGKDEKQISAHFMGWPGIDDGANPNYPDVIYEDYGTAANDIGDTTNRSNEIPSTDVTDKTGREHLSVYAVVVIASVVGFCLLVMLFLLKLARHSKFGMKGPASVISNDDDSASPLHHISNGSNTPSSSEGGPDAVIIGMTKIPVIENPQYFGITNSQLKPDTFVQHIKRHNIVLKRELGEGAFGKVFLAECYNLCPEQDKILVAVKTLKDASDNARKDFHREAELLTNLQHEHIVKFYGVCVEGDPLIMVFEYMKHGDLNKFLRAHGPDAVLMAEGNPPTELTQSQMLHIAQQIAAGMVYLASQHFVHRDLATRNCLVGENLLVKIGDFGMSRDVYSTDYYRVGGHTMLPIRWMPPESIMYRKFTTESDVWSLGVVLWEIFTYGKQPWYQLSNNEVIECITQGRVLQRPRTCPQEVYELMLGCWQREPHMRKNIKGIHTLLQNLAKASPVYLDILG
Tyrosine-protein kinase JAK1 (Homo sapiens), sequence (P23458 whole entry): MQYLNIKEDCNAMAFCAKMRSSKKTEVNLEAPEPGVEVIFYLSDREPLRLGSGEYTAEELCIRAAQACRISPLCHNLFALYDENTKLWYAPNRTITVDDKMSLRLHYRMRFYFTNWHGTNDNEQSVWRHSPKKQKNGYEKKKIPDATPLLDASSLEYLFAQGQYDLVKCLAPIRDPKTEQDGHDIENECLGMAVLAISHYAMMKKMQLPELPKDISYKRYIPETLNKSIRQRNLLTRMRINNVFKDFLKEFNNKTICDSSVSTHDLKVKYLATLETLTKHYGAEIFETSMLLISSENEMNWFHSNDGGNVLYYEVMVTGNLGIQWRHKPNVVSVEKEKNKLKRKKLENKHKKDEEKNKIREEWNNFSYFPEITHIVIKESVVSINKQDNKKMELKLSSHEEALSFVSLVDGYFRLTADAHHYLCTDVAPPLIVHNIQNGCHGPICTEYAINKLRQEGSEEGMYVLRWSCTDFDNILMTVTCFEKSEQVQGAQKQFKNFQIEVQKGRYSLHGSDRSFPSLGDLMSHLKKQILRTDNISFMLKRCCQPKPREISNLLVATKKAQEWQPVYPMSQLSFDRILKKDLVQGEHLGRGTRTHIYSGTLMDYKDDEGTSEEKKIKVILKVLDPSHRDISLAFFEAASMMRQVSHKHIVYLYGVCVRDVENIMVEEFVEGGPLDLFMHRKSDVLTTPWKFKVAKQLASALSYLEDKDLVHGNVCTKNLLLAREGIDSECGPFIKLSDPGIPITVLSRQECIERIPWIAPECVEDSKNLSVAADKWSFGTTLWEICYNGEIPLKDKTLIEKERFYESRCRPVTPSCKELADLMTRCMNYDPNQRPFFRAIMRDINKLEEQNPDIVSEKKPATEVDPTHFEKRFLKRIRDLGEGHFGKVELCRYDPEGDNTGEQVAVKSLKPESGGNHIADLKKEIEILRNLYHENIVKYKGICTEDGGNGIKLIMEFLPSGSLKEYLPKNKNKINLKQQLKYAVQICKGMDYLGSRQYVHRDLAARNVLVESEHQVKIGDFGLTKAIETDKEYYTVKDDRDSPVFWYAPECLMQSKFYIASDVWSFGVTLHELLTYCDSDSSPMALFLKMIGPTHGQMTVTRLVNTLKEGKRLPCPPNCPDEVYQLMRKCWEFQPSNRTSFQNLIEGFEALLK
Inhibitor of nuclear factor kappa-B kinase subunit alpha (Homo sapiens), sequence (O15111 whole entry): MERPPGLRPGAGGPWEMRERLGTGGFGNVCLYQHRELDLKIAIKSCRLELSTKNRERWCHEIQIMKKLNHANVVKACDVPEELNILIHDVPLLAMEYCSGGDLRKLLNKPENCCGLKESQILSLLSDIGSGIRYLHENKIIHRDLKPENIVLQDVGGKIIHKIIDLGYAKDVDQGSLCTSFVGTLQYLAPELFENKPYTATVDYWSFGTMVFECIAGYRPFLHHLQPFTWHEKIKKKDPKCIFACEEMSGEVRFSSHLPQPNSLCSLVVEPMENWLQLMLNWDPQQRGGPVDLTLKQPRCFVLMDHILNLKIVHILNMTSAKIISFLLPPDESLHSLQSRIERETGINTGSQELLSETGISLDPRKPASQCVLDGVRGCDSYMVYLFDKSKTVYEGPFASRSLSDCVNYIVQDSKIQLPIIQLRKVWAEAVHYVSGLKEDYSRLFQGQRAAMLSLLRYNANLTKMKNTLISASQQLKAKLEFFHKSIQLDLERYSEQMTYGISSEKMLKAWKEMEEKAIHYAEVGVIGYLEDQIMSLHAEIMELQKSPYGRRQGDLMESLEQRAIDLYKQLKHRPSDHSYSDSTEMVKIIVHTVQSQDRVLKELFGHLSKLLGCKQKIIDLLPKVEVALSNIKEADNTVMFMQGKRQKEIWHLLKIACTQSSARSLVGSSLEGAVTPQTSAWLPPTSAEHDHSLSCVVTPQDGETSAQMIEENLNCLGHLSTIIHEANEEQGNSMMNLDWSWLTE
Serine/threonine-protein kinase 17B (Homo sapiens), sequence (O94768 whole entry): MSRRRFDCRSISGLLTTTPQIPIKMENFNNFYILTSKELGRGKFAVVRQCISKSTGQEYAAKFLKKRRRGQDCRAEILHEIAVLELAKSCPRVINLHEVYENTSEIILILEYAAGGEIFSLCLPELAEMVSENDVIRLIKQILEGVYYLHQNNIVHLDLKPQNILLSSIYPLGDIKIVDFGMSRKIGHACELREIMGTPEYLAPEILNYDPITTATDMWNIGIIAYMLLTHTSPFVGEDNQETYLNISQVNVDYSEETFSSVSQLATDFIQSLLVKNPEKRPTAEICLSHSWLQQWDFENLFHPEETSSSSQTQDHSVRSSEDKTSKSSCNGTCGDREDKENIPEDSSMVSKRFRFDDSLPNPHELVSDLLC
Ribosomal protein S6 kinase alpha-6 (Homo sapiens), sequence (Q9UK32 whole entry): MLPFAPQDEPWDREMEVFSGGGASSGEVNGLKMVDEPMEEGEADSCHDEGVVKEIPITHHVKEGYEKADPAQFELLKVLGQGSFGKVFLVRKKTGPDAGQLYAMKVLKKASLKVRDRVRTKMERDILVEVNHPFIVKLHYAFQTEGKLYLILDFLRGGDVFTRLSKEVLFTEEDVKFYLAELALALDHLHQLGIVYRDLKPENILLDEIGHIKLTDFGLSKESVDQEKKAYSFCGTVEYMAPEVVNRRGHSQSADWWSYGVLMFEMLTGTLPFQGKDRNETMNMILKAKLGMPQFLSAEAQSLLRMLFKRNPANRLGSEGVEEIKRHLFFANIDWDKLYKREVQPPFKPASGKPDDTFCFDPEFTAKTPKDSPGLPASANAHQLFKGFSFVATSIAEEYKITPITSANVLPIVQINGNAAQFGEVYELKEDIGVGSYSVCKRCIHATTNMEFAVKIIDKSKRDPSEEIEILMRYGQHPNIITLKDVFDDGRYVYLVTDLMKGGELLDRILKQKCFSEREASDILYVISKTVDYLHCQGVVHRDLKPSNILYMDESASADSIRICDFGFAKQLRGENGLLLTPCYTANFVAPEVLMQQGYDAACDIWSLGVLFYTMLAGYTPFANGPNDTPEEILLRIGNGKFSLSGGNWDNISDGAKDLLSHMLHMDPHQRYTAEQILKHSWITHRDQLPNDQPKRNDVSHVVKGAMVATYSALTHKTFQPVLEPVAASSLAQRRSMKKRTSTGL
Inhibitor of nuclear factor kappa-B kinase subunit beta (Homo sapiens), sequence (O14920 whole entry): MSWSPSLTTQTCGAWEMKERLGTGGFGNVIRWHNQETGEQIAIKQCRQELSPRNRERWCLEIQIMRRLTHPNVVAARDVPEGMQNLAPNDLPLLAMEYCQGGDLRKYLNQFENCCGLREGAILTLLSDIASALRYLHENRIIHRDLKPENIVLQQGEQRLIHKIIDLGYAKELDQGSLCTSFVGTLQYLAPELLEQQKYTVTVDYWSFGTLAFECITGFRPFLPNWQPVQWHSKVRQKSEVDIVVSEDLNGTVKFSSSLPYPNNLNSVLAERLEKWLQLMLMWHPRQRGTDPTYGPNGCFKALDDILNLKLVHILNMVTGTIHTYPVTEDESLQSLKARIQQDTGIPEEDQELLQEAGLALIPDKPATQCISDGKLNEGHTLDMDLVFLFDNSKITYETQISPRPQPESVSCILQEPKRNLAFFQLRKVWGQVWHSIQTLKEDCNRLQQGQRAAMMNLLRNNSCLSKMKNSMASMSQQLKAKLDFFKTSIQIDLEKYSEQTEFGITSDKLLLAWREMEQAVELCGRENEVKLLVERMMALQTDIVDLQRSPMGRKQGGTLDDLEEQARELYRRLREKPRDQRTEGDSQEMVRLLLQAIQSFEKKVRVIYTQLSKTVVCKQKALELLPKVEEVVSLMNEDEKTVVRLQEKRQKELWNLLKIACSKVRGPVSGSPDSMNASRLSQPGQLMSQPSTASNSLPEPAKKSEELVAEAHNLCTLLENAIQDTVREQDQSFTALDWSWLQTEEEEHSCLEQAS
RAC-alpha serine/threonine-protein kinase (Homo sapiens), sequence (P31749 whole entry): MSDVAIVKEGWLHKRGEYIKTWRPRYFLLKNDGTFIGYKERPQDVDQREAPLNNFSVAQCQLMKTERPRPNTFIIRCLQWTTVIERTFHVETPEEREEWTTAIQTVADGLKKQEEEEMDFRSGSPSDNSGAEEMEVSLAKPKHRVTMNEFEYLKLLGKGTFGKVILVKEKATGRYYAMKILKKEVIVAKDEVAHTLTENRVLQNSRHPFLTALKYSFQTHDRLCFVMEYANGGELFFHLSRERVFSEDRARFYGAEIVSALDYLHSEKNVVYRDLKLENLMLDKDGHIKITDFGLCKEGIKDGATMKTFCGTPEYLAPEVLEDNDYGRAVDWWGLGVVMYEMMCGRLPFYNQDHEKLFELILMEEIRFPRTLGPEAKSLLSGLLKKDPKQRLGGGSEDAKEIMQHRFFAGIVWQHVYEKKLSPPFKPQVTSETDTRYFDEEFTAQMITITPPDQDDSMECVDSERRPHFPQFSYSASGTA

N#CC1(c2ccccn2)CCN(Cc2cc(C(=O)O)c(=O)n3ccccc23)CC1 [MSD-M1PAM]
inactive: residual activity [1] 100% | residual activity [2] 81% | residual activity [3] 100% | residual activity [4] 100% | residual activity [5] 100% | residual activity [6] 98% | residual activity [7] 100% | residual activity [8] 100% | residual activity [9] 92% | residual activity [10] 93% | residual activity [11] 100% | residual activity [12] 66% | residual activity [13] 100% | residual activity [14] 100% | residual activity [15] 100% | residual activity [16] 100% | residual activity [17] 100% | residual activity [18] 100% | residual activity [19] 100% | residual activity [20] 55% | residual activity [21] 99% | residual activity [22] 85% | residual activity [23] 100% | residual activity [24] 77% | residual activity [25] 88% | residual activity [26] 100% | residual activity [27] 100% | residual activity [28] 84% | residual activity [29] 92% | residual activity [30] 99% | residual activity [31] 84% | inhibition [32] -8.33% | inhibition [33] -2.36%

N#CC1(c2ccccn2)CCN(Cc2cc(C(=O)N3CCCC3)c(=O)n3ccccc23)CC1
inactive: residual activity [1] 100% | residual activity [2] 75% | residual activity [3] 91% | residual activity [4] 100% | residual activity [5] 93% | residual activity [6] 99% | residual activity [7] 100% | residual activity [8] 93% | residual activity [9] 90% | residual activity [10] 82% | residual activity [11] 72% | residual activity [12] 100% | residual activity [13] 94% | residual activity [14] 99% | residual activity [15] 100% | residual activity [16] 95% | residual activity [17] 100% | residual activity [18] 98% | residual activity [19] 100% | residual activity [20] 78% | residual activity [21] 97% | residual activity [22] 96% | residual activity [23] 100% | residual activity [24] 100% | residual activity [25] 88% | residual activity [26] 95% | residual activity [27] 96% | residual activity [28] 89% | residual activity [29] 100% | residual activity [30] 85% | residual activity [31] 93% | inhibition [32] -8.64% | inhibition [33] -8.87%
